The values that follow are results of earlier work, collected in patent US20080166330A1, “Bacterial Compositions For Prevention Or Treatment Of Atherosclerotic Disorders” (priority 2004, published 2008).

In the series the test system is anti-Chlamydia abzymes. The settings on record: general statement of the description, no test details.

`CC[C@H]1OC(=O)[C@H](C)[C@@H](O[C@H]2C[C@@](C)(OC)[C@@H](O)[C@H](C)O2)[C@H](C)[C@@H](O[C@@H]2O[C@H](C)C[C@H](N(C)C)[C@H]2O)[C@](C)(O)C[C@@H](C)CN(C)[C@H](C)[C@@H](O)[C@]1(C)O` [azithromycin]: the “inhibition of abzyme activity” value is on record as “inhibit abzyme activity”.
